Assay results: patent US20120214824A1, “PROTEOSTASIS REGULATORS” (priority 2010, published 2012)

Legend:
GCLM = assay: Multigene assay (QuantiGene Plex 2.0), mouse MEF cell line; assay type: cell-based; details: 6 hours post-compound treatment, Table 1a
Summary of the method: (§1)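 Seed cells overnight, dose in a 7-point series, lyse at 6 h. Hybridize lysate with probe sets and magnetic capture beads overnight at 54° C., amplify, label with SAPE, read fluorescence. Express as fold change over DMSO, normalized to TBP or Tub1.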

TUB1 = assay: as above; assay type: cell-based; details: 6 hours post-compound treatment, Table 1a
Summary of the method: as §1

HSPA1a = assay: as above; assay type: cell-based; details: 6 hours post-compound treatment, Table 1b
Summary of the method: as §1

HspA5 = assay: as above; assay type: cell-based; details: 6 hours post-compound treatment, Table 1b
Summary of the method: as §1

DDIT3 = assay: as above; assay type: cell-based; details: 6 hours post-compound treatment, Table 1a
Summary of the method: as §1

HMOX = assay: as above; assay type: cell-based; details: 6 hours post-compound treatment, Table 1b
Summary of the method: as §1

BCL2 = assay: as above; assay type: cell-based; details: 6 hours post-compound treatment, Table 1b
Summary of the method: as §1

[1] = tested on: medium spiny neurons in rat brain slices transfected with human mutant huntingtin-based constructs; assay: Huntington's disease brain slice-based screening assay; assay type: cell-based; details: ex vivo rat brain slices transfected with Htt-exon1-Q73 construct; at concentrations from 0.1 uM to 3 uM (tested 0.03, 0.1, 0.3, 1 and 3 uM)
Description: The FIGURE is a bar graph showing the number of healthy medium spiny neurons in rat brain slices for YFP, mN90Q73, KW+SP (positive control) and for [4-(2-isopropoxyphenyl)-2-methyl-5-oxo-7-(thiophen-2-yl)-1,4,5,6,7,8-hexahydroquinoline-3-carbonitrile] exposure at 0.03, 0.1, 0.3, 1 and 3 uM. Hemi-coronal brain slices containing striatum were prepared and transfected with control and huntingtin (Htt) constructs. YFP is Yellow Fluorescence Protein (YFP) plus vector. mN90Q73 is YFP plus the Htt-exon1-Q73 construct. The combination of KW-6002 (50 uM) and SP600125 (30 uM) was used as a positive control.
Selected compounds that modulated proteostasis network genes were tested in an ex vivo screening assay in which rat brain slices were transfected with human mutant huntingtin-based constructs as described in Reinhart et al., Identification of anti-inflammatory targets for Huntington's disease using a brain slice-based screening assay, Neurobiology of Disease (2011), 43(1), 248-256, the contents of which are expressly incorporated by reference herein. Hemi-coronal brain slices containing striatum were prepared and transfected with control and huntingtin (Htt) constructs.
50 uM KW-6002 (Istradefylline) in combination with 30 uM SP600125 was used as a positive control. YFP is Yellow Fluorescence Protein (YFP) plus vector. mN90Q73 is YFP plus the Htt-exonl-Q73 construct. […]

firefly luciferase = assay: Luciferase folding assay (Lucif.); assay type: cell-based, human; details: HeLa-luciferase cells; Table 1a
Excerpt: Firefly luciferase is a commonly used bioluminescent reporter. This monomeric enzyme of 61 kDa catalyzes a two-step oxidation reaction to yield light, usually in the green to yellow region, typically 550-570 nm. The first step of this reaction is activation of the luciferyl carboxylate by ATP to yield a reactive mixed anhydride. In the second step, the activated intermediate reacts with oxygen to create a transient dioxetane that breaks down to the oxidized products, oxyluciferin and CO2. Upon mixing with substrates, firefly luciferase produces an initial burst of light that decays over about 15 seconds to a low level of sustained luminescence. This kinetic profile reflects the slow release of the enzymatic product, thus limiting catalytic turnover after the initial reaction.
This mammalian cell based assay that used firefly luciferase as a sensor was used to screen for compounds that may modulate the cellular folding environment.
HeLa luciferase cell lines: Frozen bullets containing the cells were thawed briefly at 37° C. then placed into a T-150 flask containing 30-35 ml DMEM medium+Penicillin/Strep (1% final+10% FBS (final)+Geneticin @ 200-500 ug/ml. Cell cultures were maintained at 37° C. with 5% CO2 and water in the bottom of the incubator to keep cells healthy. Upon expanding cell line, luciferase measurements were taken to make sure that activity levels were between 2000-5000 (RLU) when plated at 15K/well in a 96-well format (Bright-Glo Promega) before compound treatment.
Compound treatment of HeLa-luciferase cells: HeLa-luciferase WT cells were plated in a 96-well format at 15K/well the day prior to performing compound treatment and/or luciferase assay. […] Final volume used per well was 90 uL. Flat bottom, white polystyrene plates were used for plating the cells.
For compound treatment, stocks of compounds were made up at 10 mM concentration in DMSO. Stocks compounds were diluted by 100× fold in the same media used for culturing the cells—this leads to a 0.1 mM (or 100 uM) concentration. After diluting the compound in media, 10 uL of the 100 uM solution was placed into each well of cells (90 uL); making the final concentration of the compound 10 uM. If serial dilutions of compounds were tested, serial dilutions of compounds were first made in DMSO accordingly, and further diluted in the media, prior to adding to cells. This procedure allowed for constant final levels of DMSO concentrations, regardless of initial compound concentration.
Performing luciferase activity assay: Bright-Glo Luciferase Assay Reagent (Promega cat #: E2610, E2620, E2650) was thawed out at RT in a water bath. Alternatively, Bright-Glo Luciferase assay buffer (prior to mixing with substrate) was stored overnight at RT, prior to using.
Following compound treatment, plates were removed from 37° C. and allowed to acclimate to RT for 5-10 min. Bright-Glo reagent was added to each cell-containing well in a 1:1 ratio (e.g., 100 uL of Bright Glo for each 100 uL cells).
Plates were placed on a plate shaker for 5 min, removing any air bubbles on the surface (which may interfere with proper reads), and then read on an EnVision 2104 Multilabel reader, Emission filter Luminescence 700, barcode 212, WL 400-700 nm.
Data for representative compounds in this assay are shown under the heading “Lucif.”

With CC1=C(C#N)C(c2ccccc2OC(C)C)C2=C(CC(c3cccs3)CC2=O)N1 (stereo not drawn) [drawing 26/Me/CN/o-OCHMe2, 4-(2-isopropoxyphenyl)-2-methyl-5-oxo-7-(thiophen-2-yl)-1,4,5,6,7,8-hexahydroquinoline-3-carbonitrile] the GCLM gene induction (GCLM) was “− (− Indicates less than 2 fold induction)”, the TUB1 gene induction (TUB1) was “− (− Indicates less than 2 fold induction)” and the HSPA1a gene induction (HSPA1a) was “− (− Indicates less than 2 fold induction)”. The HspA5 gene induction (HspA5) was “− (− Indicates less than 2 fold induction)”, the DDIT3 gene induction (DDIT3) was “− (− Indicates less than 2 fold induction)” and the HMOX gene induction (HMOX) was “− (− Indicates less than 2 fold induction)”. The BCL2 gene induction (BCL2) was “− (− Indicates less than 2 fold induction)”, the “medium spiny neurons viability (number of healthy medium spiny neurons)” value [1] was “improved medium spiny neurons viability” and the “Lucif. (luciferase activity induction)” value (firefly luciferase) was “+ (+ indicates a induction of greater than 2 fold)”.
